Test results as given in patent US12396459B2, “Synergistically effective herbicide composition comprising pyridate and at least one defined 4-HPPD inhibitor” (BELCHIM CROP PROTECTION NV, priority 2018, dated 2025).

What was measured:
Assay type in all cases: in vivo
Chenopodium album [1] = test: Examples 6-8 herbicidal effect: CHEAL; settings: 7 DAA
Poa annua = test: Field trial post-emergence in maize: POAAN; settings: for herbicidal effect (h.e.): g a.c./ha: PYR 300, MES 100, PYR + MES 300 + 90
Method: (§1) Herbicidal activity of herbicide compositions according to the first aspect of the present invention with regard to different types of unwanted vegetation was determined during trials performed on test fields (field trials). Individual compositions comprising pyridate and individual compositions comprising a defined 4-HPPD inhibitor are compared with a herbicide composition according to the invention comprising both pyridate and a defined 4-HPPD inhibitor. The expected activity of the combination of the active compounds pyridate and a defined 4-HPPD inhibitor is calculated according to above mentioned calculation method by Colby, in order to evaluate a synergistic effect between pyridate and a defined 4-HPPD inhibitor.
(§2) Herbicidal activity was determined by applying herbicide compositions on emerged unwanted vegetation on fields where maize was cultivated. Pyridate and a defined 4-HPPD inhibitor were applied as a tank mixture by mixing these active compounds prior to use in a spray tank. The corresponding mixture was in the form of a spray liquor. Besides, spray liquors of individual compositions comprising pyridate and of individual compositions comprising a defined 4-HPPD inhibitor were used. Test plants of unwanted vegetation with a growth stage corresponding to BBCH 10-18 (according to the extended BBCH-scale) were sprayed with the active compound preparations such that particular desired amounts of active compounds are applied per unit area. Spray liquor was diluted with water to arrive at an application volume of 50 to 450 L/ha. At a specified number of days after application (DAA), the degree of damage to the unwanted vegetation is rated in % of plants of unwanted vegetation that were killed, which was assessed by visually controlling the plants.

Rumex obtusifolius = test: Field trial post-emergence in maize: RUMOB
Method: as §1, §2
(§3) Example 1 concerns a herbicide composition comprising a combination of pyridate and mesotrione, which was applied post-emergence on unwanted vegetation on a field where maize was cultivated, according to the test conditions mentioned above.

Papaver rhoeas = test: Field trial post-emergence in maize: PAPRH; settings: # = 1, g a.c./ha: PYR 300, MES 100, PYR + MES 300 + 90
Method: as §1, §2

Abutilon theophrasti = test: Field trial post-emergence in maize: ABUTH; settings: 31-48 DAA; # = 2; g a.c./ha: PYR 300, MES 100, PYR + MES 300 + 90
Method: as §1
(§4) Herbicidal activity was determined by applying herbicide compositions on emerged unwanted vegetation on fields where maize was cultivated. Pyridate and a defined 4-HPPD inhibitor were applied as a tank mixture by mixing these active compounds prior to use in a spray tank. The corresponding mixture was in the form of a spray liquor. […] At a specified number of days after application (DAA), the degree of damage to the unwanted vegetation is rated in % of plants of unwanted vegetation that were killed, which was assessed by visually controlling the plants.

Sinapis arvensis = test: Field trial post-emergence in maize: SINAR; settings: 13-14 DAA; # = 1; g a.c./ha: PYR 450, TOP 12.4, PYR + TOP 450 + 12.4
Method: as §1, §4

Digitaria sanguinalis = test: Examples 6-8 herbicidal effect: DIGSA; settings: 7 DAA
Chenopodium album [2] = test: Field trial post-emergence in maize: CHEAL; settings: 13-14 DAA, # = 1
Method: as §1, §2

Echinochloa crus-galli = test: Field trial post-emergence in maize: ECHCG; settings: for herbicidal effect (h.e.): g a.c./ha: PYR 300, MES 100, PYR + MES 300 + 90
Method: as §1, §2

Xanthium spinosum = test: Field trial post-emergence in maize: XANSP; settings: 7-14 DAA; # = 3; g a.c./ha: PYR 300, MES 100, PYR + MES 300 + 90
Method: as §1, §4

Stachys arvensis = test: Field trial post-emergence in maize: STAAR; settings: 7-14 DAA; # = 1; g a.c./ha: PYR 300, MES 100, PYR + MES 300 + 90
Method: as §1, §4

[3] = system: unwanted vegetation (UVEG); test: Field trials Examples 1-5 (incl. Table 1), post-emergence on unwanted vegetation in maize; settings: 14-20 DAA
Method: as §1, §2

Capsella bursa-pastoris = test: Field trial post-emergence in maize: CAPBP
Method: as §1, §2

Bassia scoparia = test: Field trial post-emergence in maize: KCHSC; settings: 13-14 DAA; # = 2; g a.c./ha: PYR 450, TEM 38, PYR + TEM 450 + 38
Method: as §1, §4

Mercurialis annua = test: Field trial post-emergence in maize: MERAN
Method: as §1, §2, §3

Fallopia convolvulus = test: Field trial post-emergence in maize: POLCO
Method: as §1, §2

Lamium amplexicaule = test: Example 6 herbicidal effect: LAMAM; settings: 7 DAA
[4] = g a.c./ha: PYR 10, TEM 22, PYR + TEM 10 + 100
[5] = g a.c./ha: PYR 300, PYR + MES 300 + 80
[6] = g a.c./ha: PYR 300, SCT 300, PYR + SCT 300 + 300
[7] = g a.c./ha: PYR 300, TEM 100, PYR + TEM 300 + 100
[8] = g a.c./ha: PYR 450, SCT 450, PYR + SCT 300 + 450
[9] = g a.c./ha: PYR 600, PYR + SCT 600 + 300
[10] = g a.c./ha: PYR 900, TEM 44, PYR + TEM 900 + 44

CCCCCCCCSC(=O)Oc1cc(Cl)nnc1-c1ccccc1 [PYR, (6-chloro-3-phenylpyridazin-4-yl) octylsulfanylformate]
herbicidal effect (h.e.) (Chenopodium album [1]; [4]): 0% | herbicidal effect (h.e.) (Chenopodium album [1]; [5]): 6% | herbicidal effect (h.e.) (Chenopodium album [1]; [6]): 3% | herbicidal effect (h.e.) (Chenopodium album [1]; [7]): 5% | herbicidal effect (h.e.) (Chenopodium album [1]; [8]): 10% | herbicidal effect (h.e.) (Chenopodium album [1]; [9]): 22% | herbicidal effect (h.e.) (Chenopodium album [1]; [10]): 90% | herbicidal effect (h.e.) (Poa annua; 7-14 DAA, # = 2): 25% | herbicidal effect (h.e.) (Poa annua; 18-28 DAA, # = 3): 17% | herbicidal effect (h.e.) (Poa annua; 31-48 DAA, # = 2): 17% | PYR h.e. (Poa annua; POAAN 14-20 DAA 300 g a.c./ha): 7% | PYR h.e. (Poa annua; POAAN 14-20 DAA 600 g a.c./ha): 17% | PYR h.e. (Poa annua; POAAN 14-20 DAA 900 g a.c./ha): 36% | PYR h.e. (Poa annua; POAAN 24-31 DAA 300 g a.c./ha): 5% | PYR h.e. (Poa annua; POAAN 24-31 DAA 600 g a.c./ha): 13% | PYR h.e. (Poa annua; POAAN 24-31 DAA 900 g a.c./ha): 28% | PYR h.e. (Rumex obtusifolius; RUMOB 14-20 DAA 300 g a.c./ha): 20% | PYR h.e. (Rumex obtusifolius; RUMOB 14-20 DAA 600 g a.c./ha): 30% | PYR h.e. (Rumex obtusifolius; RUMOB 14-20 DAA 900 g a.c./ha): 55% | herbicidal effect (h.e.) (Papaver rhoeas; 18-28 DAA): 3% | herbicidal effect (h.e.) (Papaver rhoeas; 31-48 DAA): 3% | herbicidal effect (h.e.) (Abutilon theophrasti): 73% | herbicidal effect (h.e.) (Sinapis arvensis): 57% | herbicidal effect (h.e.) (Digitaria sanguinalis; [4]): 0% | herbicidal effect (h.e.) (Digitaria sanguinalis; [5]): 0% | herbicidal effect (h.e.) (Digitaria sanguinalis; [6]): 0% | herbicidal effect (h.e.) (Digitaria sanguinalis; [7]): 5% | herbicidal effect (h.e.) (Digitaria sanguinalis; [8]): 0% | herbicidal effect (h.e.) (Digitaria sanguinalis; [9]): 5% | herbicidal effect (h.e.) (Digitaria sanguinalis; [10]): 0% | herbicidal effect (h.e.) (Chenopodium album [2]; g a.c./ha: PYR 450, TEM 38, PYR + TEM 450 + 38): 49% | herbicidal effect (h.e.) (Chenopodium album [2]; g a.c./ha: PYR 450, TOP 12.4, PYR + TOP 450 + 12.4): 35% | herbicidal effect (h.e.) (Echinochloa crus-galli; 7-14 DAA, # = 9): 20% | herbicidal effect (h.e.) (Echinochloa crus-galli; 18-28 DAA, # = 14): 23% | herbicidal effect (h.e.) (Echinochloa crus-galli; 31-48 DAA, # = 13): 23% | PYR h.e. (Echinochloa crus-galli; ECHCG 14-20 DAA 300 g a.c./ha): 10% | PYR h.e. (Echinochloa crus-galli; ECHCG 14-20 DAA 600 g a.c./ha): 23% | PYR h.e. (Echinochloa crus-galli; ECHCG 14-20 DAA 900 g a.c./ha): 31% | PYR h.e. (Echinochloa crus-galli; ECHCG 24-31 DAA 300 g a.c./ha): 0% | PYR h.e. (Echinochloa crus-galli; ECHCG 24-31 DAA 600 g a.c./ha): 3% | PYR h.e. (Echinochloa crus-galli; ECHCG 24-31 DAA 900 g a.c./ha): 20% | herbicidal effect (h.e.) (Xanthium spinosum): 5% | herbicidal effect (h.e.) (Stachys arvensis): 35% | PYR h.e. (%) ([3]; VIOAR (Viola arvensis), # = 3, first VIOAR block (r259-264), PYR 900 g a.c./ha): 50% | PYR h.e. (%) ([3]; VIOAR (Viola arvensis), # = 3, second VIOAR block (r265-272), PYR 300 g a.c./ha): 27% | PYR h.e. (%) ([3]; VIOAR, # = 3, second VIOAR block (r265-272), PYR 600 g a.c./ha): 34% | PYR h.e. (%) ([3]; VIOAR, # = 3, second VIOAR block (r265-272), PYR 900 g a.c./ha): 47% | herbicidal effect (h.e.) (Capsella bursa-pastoris; 7-14 DAA, # = 3, g a.c./ha: PYR 300, MES 100, PYR + MES 300 + 90): 51% | PYR h.e. (Capsella bursa-pastoris; CAPBP 14-20 DAA 300 g a.c./ha): 59% | PYR h.e. (Capsella bursa-pastoris; CAPBP 14-20 DAA 600 g a.c./ha): 65% | PYR h.e. (Capsella bursa-pastoris; CAPBP 14-20 DAA 900 g a.c./ha): 73% | PYR h.e. (Capsella bursa-pastoris; CAPBP 24-31 DAA 300 g a.c./ha): 53% | PYR h.e. (Capsella bursa-pastoris; CAPBP 24-31 DAA 600 g a.c./ha): 61% | PYR h.e. (Capsella bursa-pastoris; CAPBP 24-31 DAA 900 g a.c./ha): 73% | herbicidal effect (h.e.) (Bassia scoparia): 66% | PYR h.e. (Mercurialis annua; MERAN 14-20 DAA 300 g a.c./ha): 48% | PYR h.e. (Mercurialis annua; MERAN 14-20 DAA 600 g a.c./ha): 78% | PYR h.e. (Mercurialis annua; MERAN 24-31 DAA 300 g a.c./ha): 10% | PYR h.e. (Mercurialis annua; MERAN 24-31 DAA 600 g a.c./ha): 33% | PYR h.e. (Mercurialis annua; MERAN 24-31 DAA 900 g a.c./ha): 80% | herbicidal effect (h.e.) (Fallopia convolvulus; 7-14 DAA, # = 5, g a.c./ha: PYR 300, MES 100, PYR + MES 300 + 90): 26% | herbicidal effect (h.e.) (Fallopia convolvulus; 13-14 DAA, # = 1, g a.c./ha: PYR 450, MES 144, PYR + MES 450 + 144): 23% | herbicidal effect (h.e.) (Fallopia convolvulus; 18-28 DAA, # = 8, g a.c./ha: PYR 300, MES 100, PYR + MES 300 + 90): 32% | herbicidal effect (h.e.) (Fallopia convolvulus; 31-48 DAA, # = 8, g a.c./ha: PYR 300, MES 100, PYR + MES 300 + 90): 27% | PYR h.e. (Fallopia convolvulus; POLCO 14-20 DAA 300 g a.c./ha): 31% | PYR h.e. (Fallopia convolvulus; POLCO 14-20 DAA 600 g a.c./ha): 34% | PYR h.e. (Fallopia convolvulus; POLCO 14-20 DAA 900 g a.c./ha): 47% | PYR h.e. (Fallopia convolvulus; POLCO 24-31 DAA 300 g a.c./ha): 29% | PYR h.e. (Fallopia convolvulus; POLCO 24-31 DAA 600 g a.c./ha): 29% | PYR h.e. (Fallopia convolvulus; POLCO 24-31 DAA 900 g a.c./ha): 43% | herbicidal effect (h.e.) (Lamium amplexicaule; [4]): 0% | herbicidal effect (h.e.) (Lamium amplexicaule; [7]): 5% | herbicidal effect (h.e.) (Lamium amplexicaule; [10]): 10%
